Structures are written as SMILES. Active and inactive are the calls of the source. No cut-off for these calls is given here. Residues, ends and D or L forms follow the SMILES beside them.

Assay [1] deals with Urokinase-type plasminogen activator (Homo sapiens, UniProt P00749). The assay can be described thus: Binding affinity to urokinase-type plasminogen activator.
Assay [2] addresses Coagulation factor XI (Homo sapiens) (UniProt P03951). The experiment in a line: Inhibition of human factor 11a at 10 uM using Z-Phe-Arg-AMC substrate after 30 mins by spectrophotometric assay.
The target in assay [3] is Plasma kallikrein (Mus musculus) (UniProt P26262). The experiment in a line: Inhibition of mouse plasma kallikrein at 10 uM using Z-Phe-Arg-AMC substrate after 30 mins by spectrophotometric assay. It counts as cell-free.
Plasma kallikrein (Mus musculus), sequence (P26262 20-390 limits assumed): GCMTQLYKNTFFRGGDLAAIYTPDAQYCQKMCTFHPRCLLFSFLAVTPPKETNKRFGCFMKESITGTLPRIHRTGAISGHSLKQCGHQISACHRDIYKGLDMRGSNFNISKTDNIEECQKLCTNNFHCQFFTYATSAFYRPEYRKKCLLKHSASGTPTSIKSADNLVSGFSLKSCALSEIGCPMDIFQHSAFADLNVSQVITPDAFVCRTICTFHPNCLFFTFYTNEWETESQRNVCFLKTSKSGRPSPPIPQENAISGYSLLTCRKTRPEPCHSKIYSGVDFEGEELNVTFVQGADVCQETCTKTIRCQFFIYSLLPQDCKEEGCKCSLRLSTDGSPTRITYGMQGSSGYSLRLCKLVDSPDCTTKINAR
Plasma kallikrein (Mus musculus), sequence (P26262 391-638 limits assumed): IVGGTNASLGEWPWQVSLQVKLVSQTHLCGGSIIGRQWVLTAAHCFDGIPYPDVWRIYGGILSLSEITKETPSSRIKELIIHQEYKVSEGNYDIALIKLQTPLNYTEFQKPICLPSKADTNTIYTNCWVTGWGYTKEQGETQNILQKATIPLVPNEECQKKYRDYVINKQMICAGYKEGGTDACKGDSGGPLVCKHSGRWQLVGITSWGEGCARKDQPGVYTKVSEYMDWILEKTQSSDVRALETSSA
For assay [4], the target named is Prothrombin (Homo sapiens) (UniProt P00734). The assay can be described thus: Inhibition of human thrombin at 10 uM using Boc-Phe-Ser-Arg-AMC substrate after 30 mins by spectrophotometric assay.
In assay [5] the target is Plasma kallikrein (Homo sapiens, UniProt P03952). The experiment in a line: Inhibition of human plasma kallikrein using Z-Phe-Arg-AMC substrate after 30 mins by spectrophotometric assay.
Plasma kallikrein, sequence (P03952 20-390 limits assumed): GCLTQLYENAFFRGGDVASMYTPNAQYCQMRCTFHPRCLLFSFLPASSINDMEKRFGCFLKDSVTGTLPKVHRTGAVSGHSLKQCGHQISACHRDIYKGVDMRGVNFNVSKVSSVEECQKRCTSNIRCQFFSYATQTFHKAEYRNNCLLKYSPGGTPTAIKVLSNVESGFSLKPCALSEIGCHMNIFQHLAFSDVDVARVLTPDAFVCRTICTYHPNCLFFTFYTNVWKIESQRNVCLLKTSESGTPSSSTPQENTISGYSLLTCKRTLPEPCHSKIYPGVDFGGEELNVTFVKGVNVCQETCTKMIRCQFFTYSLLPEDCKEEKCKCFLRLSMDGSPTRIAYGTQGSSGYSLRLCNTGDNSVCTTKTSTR
Plasma kallikrein, sequence (P03952 391-638 limits assumed): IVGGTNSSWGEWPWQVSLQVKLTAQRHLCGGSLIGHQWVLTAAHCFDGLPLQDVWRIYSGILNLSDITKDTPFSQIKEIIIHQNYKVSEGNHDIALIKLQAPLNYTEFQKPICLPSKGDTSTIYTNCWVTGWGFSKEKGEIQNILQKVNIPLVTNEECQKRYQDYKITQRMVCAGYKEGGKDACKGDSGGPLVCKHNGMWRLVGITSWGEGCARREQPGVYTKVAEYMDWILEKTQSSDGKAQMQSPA

Coagulation factor XI (Homo sapiens), sequence (P03951 19-387 limits assumed): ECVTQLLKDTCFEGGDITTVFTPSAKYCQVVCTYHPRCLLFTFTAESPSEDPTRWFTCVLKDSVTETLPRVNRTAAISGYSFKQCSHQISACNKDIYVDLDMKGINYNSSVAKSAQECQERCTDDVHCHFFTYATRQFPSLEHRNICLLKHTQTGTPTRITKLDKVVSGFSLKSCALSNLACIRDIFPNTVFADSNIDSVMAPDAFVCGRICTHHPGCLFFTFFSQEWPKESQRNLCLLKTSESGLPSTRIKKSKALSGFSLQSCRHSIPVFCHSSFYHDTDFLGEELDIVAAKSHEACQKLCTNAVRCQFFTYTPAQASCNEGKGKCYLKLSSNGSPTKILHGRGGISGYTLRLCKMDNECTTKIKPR
Coagulation factor XI (Homo sapiens), sequence (P03951 388-625 limits assumed): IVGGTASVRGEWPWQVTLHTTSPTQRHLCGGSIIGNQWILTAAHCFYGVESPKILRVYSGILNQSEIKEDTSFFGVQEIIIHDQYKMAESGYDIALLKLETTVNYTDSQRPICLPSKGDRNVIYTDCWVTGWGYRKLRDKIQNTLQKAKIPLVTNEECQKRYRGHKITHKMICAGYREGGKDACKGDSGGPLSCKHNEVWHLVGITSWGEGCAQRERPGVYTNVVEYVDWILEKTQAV

For the compound `CSCC[C@H](NC(=O)[C@H](CCCNC(=N)N)NC(=O)[C@H](Cc1cnc[nH]1)NC(=O)[C@H](CC(N)=O)NC(=O)[C@H](CCC(=O)O)NC(=O)[C@H](CC(C)C)NC(=O)CNC(=O)[C@H](CCCNC(=N)N)NC(=O)[C@H](Cc1c[nH]c2ccccc12)NC(=O)[C@H](CO)NC(=O)[C@@H](N)CS)C(=O)N[C@@H](CS)C(=O)O`, the Ki in assay [1] stood at 6.7 µM.

Consider `CC(C)C[C@H](NC(=O)[C@H](Cc1ccc(O)cc1)NC(=O)[C@H](CCCNC(=N)N)NC(=O)[C@H](CO)NC(=O)[C@H](Cc1ccc(O)cc1)NC(=O)[C@H](C)NC(=O)[C@@H]1CCCN1C(=O)[C@@H](N)CS)C(=O)N[C@@H](CC(=O)O)C(=O)N[C@@H](CS)C(=O)O`, for which affinity in assay [1] was put at a Ki of 0.4 µM. Against the preceding compound, the Ki is about 17-fold lower.

As to `CC(C)[C@H](NC(=O)[C@H](CCCNC(=N)N)NC(=O)[C@H](CS)NC(=O)[C@H](CCCNC(=N)N)NC(=O)CNC(=O)[C@H](CCC(=O)O)NC(=O)CNC(=O)[C@@H](NC(=O)CNC(=O)[C@H](CS)NC(=O)[C@@H](C)N)[C@H](C)O)C(=O)N[C@@H](CC(N)=O)C(=O)N[C@@H](Cc1c[nH]c2ccccc12)C(=O)N[C@H](C(=O)N1CCC[C@H]1C(=O)N[C@@H](CS)C(=O)NCC(N)=O)[C@@H](C)O`, the inhibition entry in assay [2], in assay [3] and in assay [4] was “inactive” each time.

With `CSCC[C@H](NC(=O)[C@H](CC(C)C)NC(=O)[C@H](CC(=O)O)NC(=O)[C@H](CCC(=O)O)NC(=O)[C@H](Cc1ccc(O)cc1)NC(=O)[C@H](CS)NC(=O)[C@H](C)NC(=O)[C@@H](NC(=O)[C@H](CCCNC(=N)N)NC(=O)[C@H](Cc1c[nH]c2ccccc12)NC(=O)[C@@H]1CCCN1C(=O)[C@H](C)NC(=O)[C@H](CS)NC(=O)[C@H](C)N)[C@@H](C)O)C(=O)N[C@@H](Cc1c[nH]c2ccccc12)C(=O)N[C@@H](CS)C(=O)NCC(N)=O` (H-ACAPWRTACYEDLMWCG-NH2), the inhibition entry in assay [2], in assay [3] and in assay [4] was “inactive” each time.

Consider `CC(C)C[C@H](NC(=O)[C@H](C)NC(=O)[C@H](CCC(=O)O)NC(=O)[C@H](CC(=O)O)NC(=O)[C@H](C)NC(=O)[C@@H]1CCCN1C(=O)[C@H](CS)NC(=O)[C@H](CC(N)=O)NC(=O)[C@H](CCCNC(=N)N)NC(=O)[C@H](Cc1ccccc1)NC(=O)[C@H](CCCNC(=N)N)NC(=O)[C@H](CC(=O)O)NC(=O)[C@H](CO)NC(=O)[C@H](CS)NC(=O)[C@H](C)N)C(=O)N[C@@H](CS)C(=O)NCC(N)=O` (H-ACSDRFRNCPADEALCG-NH2), for which the inhibition result in assay [2], in assay [3] and in assay [4] was “inactive” in each case. The compound also registered a concentration for half-maximal inhibition (IC50) in assay [5] above 10 µM.

Take `CC(C)C[C@H](NC(=O)[C@@H]1CCCN1C(=O)[C@H](CS)NC(=O)[C@H](CC(N)=O)NC(=O)[C@H](CCCNC(=N)N)NC(=O)[C@H](Cc1ccccc1)NC(=O)[C@H](CCCNC(=N)N)NC(=O)[C@H](CC(=O)O)NC(=O)[C@H](CO)NC(=O)[C@H](CS)NC(=O)[C@H](C)N)C(=O)N[C@@H](Cc1c[nH]c2ccccc12)C(=O)N[C@@H](CO)C(=O)NCC(=O)N[C@H](C(=O)N[C@@H](CS)C(=O)NCC(N)=O)[C@@H](C)O` (H-ACSDRFRNCPLWSGTCG-NH2): the inhibition entry in assay [2], in assay [3] and in assay [4] was “inactive” in each case. The compound also displayed a concentration for half-maximal inhibition (IC50) in assay [5] above 10 µM.

With `CC[C@H](C)[C@H](NC(=O)[C@H](CCC(=O)O)NC(=O)[C@@H](NC(=O)[C@@H]1CCCN1C(=O)[C@H](CS)NC(=O)[C@H](Cc1ccc(O)cc1)NC(=O)[C@H](CCCNC(=N)N)NC(=O)[C@H](CCCNC(=N)N)NC(=O)[C@H](CCC(=O)O)NC(=O)[C@@H](NC(=O)[C@H](CO)NC(=O)[C@H](CS)NC(=O)[C@H](C)N)[C@@H](C)O)[C@@H](C)CC)C(=O)N[C@@H](Cc1ccccc1)C(=O)N1CCC[C@H]1C(=O)N[C@@H](CS)C(=O)NCC(N)=O` (H-ACSTERRYCPIEIFPCG-NH2), the inhibition result in assay [2], in assay [3] and in assay [4] was “inactive” each time. It took 7.18 µM to reach half-maximal inhibition in assay [5] (IC50).

For orientation: Ki means a measure of affinity in units of concentration, obtained from inhibition or displacement. Read a low Ki as tighter binding. One may read the IC50 as the concentration at which inhibition is half-maximal. A higher IC50 goes with weaker potency.

(Values after ChEMBL document CHEMBL1240344, “Phage-encoded combinatorial chemical libraries based on bicyclic peptides” (Nat Chem Biol, 2009).)
